Where a name gives a salt, the structure may show the parent alone.
How the values were obtained:
[1] = test system: splenic CD4+ and CD8+ T-cells; assay: NOD: flow cytometry of IFNγ-producing splenic T-cells; assay type: in vivo; conditions: 6-week old male NOD mice, n=7, vs controls, p<0.01
Procedure: Leukocytes were isolated from spleens harvested from 6-week old control (n=7) and PAT-treated (n=7) NOD mice. Flow cytometric analysis was performed to assess T-cell cytokine production. Mann-Whitney U-test, ** p<0.01. Bar heights represent the means and error bars represent the standard deviations. […] Taxa with at least two significant timepoints (indicated by *) are illustrated at the phylum, genus, and species level. Dark grey and light grey coloration indicates enrichment at the specified time point in control and in PAT specimens, respectively.

[2] = test system: intestinal microbial communities; assay: EL-PAT: 16S rRNA V4 sequencing of fecal, ileal and cecal microbiota; assay type: in vivo, C57BL/6 mice
Procedure: For the experiments, dams and their litters were divided into control and antibiotic groups. In the EL-PAT study dams in the antibiotic groups received Tylosin tartrate (Sigma Aldrich, St. Louis Mo.) dissolved in distilled deionized water (neutral pH) at a concentration of 0.33 mg/ml, and dams in the control group received non-acidified water. Mice in the PAT3 group received two additional doses of antibiotics at day 27 and 36 of life for 3 days. In some experiments, C57BL/6 mice were exposed to one, PAT1, (n=17, M=9, F=8) or three, PAT3, (n=19, M=10, F=9) doses of the macrolide Tylosin in non-acidified water or non-acidified water alone (control, n=12, M=9, F=3), early-in-life, to mirror pediatric antibiotic exposures. For the first antibiotic pulse […] of Tylosin tartrate (Sigma) was dissolved in 250 ml of non-acidified water and given to PAT1 and PAT3 lactating dams at pup day 5 of life for 5 days. For the second and third pulse, pups received the antibiotic directly at day 27 and day 36 of life respectively, for three days. Mice were sacrificed at 7 weeks of age and fecal, ileal and cecal contents were collected. Throughout the experiment mouse weight and fecal contents were collected. Fecal, ileal and cecal DNA were extracted using Mobio 96-well extraction kit (MO BIO Laboratories, Inc., CA). For amplicon library generation, the V4 region of 16s rRNA gene was amplified with gene specific primers (SEQ ID NOS: 39-43). Amplicons were prepared in triplicate, pooled and quantified. The 254 bp V4 region was sequenced using the Illumina MiSeq 2×150 bp platform (Illumina Inc., CA). Forward and reverse reads were joined using the ea-utils module fastq-join. Demultiplexing and operational taxonomic unit (OTU) picking were performed using the bioinformatic tool Qiime, while pair-end reads were demultiplexed with the script split_libraries_fastq.py. Reads were quality filtered at a phred score of 20 using -q flag, and the flag --rev_comp_mapping allowed reading of the reverse complement barcode before demultiplexing. Open referenced OTU picking was performed using pick_open_reference_otus.py script to assign a taxonomy for each OTU representative sequence and build a phylogenetic tree, and an OTU table. For alpha and beta diversity, samples were rarified at a sequencing depth of 1000.

[3] = test system: SAA genes in terminal ileum; assay: NOD: SAA 1, 2, 3 gene expression in terminal ileum by qPCR; assay type: in vivo; conditions: 6-week old NOD male mice, qPCR normalized to 18S rRNA, p<0.05
Procedure: The distal ileum (1 cm) without Peyer's Patches was collected from each mouse for RNA extraction and kept in RNAlater (Ambion) overnight at 4° C. Samples were stored at −80° C. until RNA extraction was performed.
Total RNA was extracted from mouse tissues using the RNeasy Mini Kit with on-column DNase treatment to remove contaminating gDNA (Qiagen), according to the manufacturer's instructions. 1 μg of total RNA was reverse transcribed to cDNA using Super Script II (Applied Biosystems) according to the manufacturer's instructions. To generate standards for expression analysis of each target gene, the cDNA region of interest was PCR-amplified and the product cloned into pGEM-T easy (Promega). qPCR was performed with Power SYBR Green PCR Master mix (Roche) and run in a LightCycler 480 system (Roche). Target mRNA was normalized to 18S rRNA as an internal control in each sample.
RNA was extracted from the terminal ileum of the 6-week old NOD mice. […] RNA was reverse transcribed into cDNA and then qPCR was performed for SAA1, 2, or 3 using an absolute quantitation method. Gene expression data were normalized to 18S rRNA expression. […] The results for this experiment show consistent decreases in expression of the SAA genes in the ileum, detected by two independent methods (microarray and qPCR). […]

[4] = PAT3 group, two additional doses
[5] = at sacrifice, six-weeks (PAT1) and one-week (PAT3) after last pulse
[6] = one therapeutic dose, dams and offspring

## CC[C@H]1OC(=O)C[C@@H](O)[C@H](C)[C@@H](O[C@@H]2O[C@H](C)[C@@H](O[C@H]3C[C@@](C)(O)[C@@H](O)[C@H](C)O3)[C@H](N(C)C)[C@H]2O)[C@@H](CC=O)C[C@@H](C)C(=O)/C=C/C(C)=C/[C@@H]1CO[C@@H]1O[C@H](C)[C@@H](O)[C@@H](OC)[C@H]1OC [Tylosin, Tylosin tartrate]
[1]
  proportion of IFNγ-producing splenic CD4+ T-cells: increased
  proportion of IFNγ-producing splenic CD8+ T-cells: increased
[2]; [4]
  relative abundance of Blautia producta: blooms
  relative abundance of family Enterobacteriaceae: blooms
[2]; [5]
  ileal evenness: decreases
  ileal richness: decreases
[2]; early-life PAT
  abundance of Bifidobacterium (ileal, LEfSe): decreases
  abundance of S24-7 (ileal, LEfSe): decreases
  abundance of SFB (ileal, LEfSe): decreases
  relative abundance of Akkermansia muciniphila (ileal, LEfSe): increases
[2]; male and female, independent of sex
  ileal microbial communities (PCoA, Jenson-Shannon divergence): significantly different from Control
[2]; male pups over time, one or three pulses vs Control
  fecal, cecal and ileal microbial diversity (phylogenetic diversity): decreases
[2]; one and three therapeutic doses early in life, males and females
  intestinal microbial populations (PCoA, weighted Unifrac): significantly alters
[2]; [6]
  Segemented Filamentous Bacteria: loss
  relative abundance of Bacteroides uniformis: blooms
[2]; one therapeutic dose, dams and offspring, fecal, ileal and cecal samples
  relative abundance of Akkermansia muciniphila: blooms
[3]
  SAA gene expression (SAA 1, 2, 3) in the terminal ileum: significantly decreases

Reference: patent publication US20160120915A1, “METHODS FOR MANIPULATING IMMUNE RESPONSES BY ALTERING MICROBIOTA” (NEW YORK UNIVERSITY, priority 2013, published 2016)
